The record followed here is patent US10246456B2, “IRAK4 inhibiting agents” (BIOGEN MA INC., priority 2014, dated 2019).

This experiment concerns the target IRAK4 (Homo sapiens (Human), UniProt Q9NWZ3). Briefly: IRAK-4 AlphaScreen biochemical kinase assay. As to conditions: 1 nM IRAK4, 1 mM ATP, 3.5 h at RT. Here is the method:
The biochemical assay is in a AlphaScreen format. The kinase reaction is based on the IRAK-4 phosphorylation of a biotin labeled peptide. The phosphopeptide is incubated with anti-phosphothreonine antibody as well as streptavidin- and protein A-coated beads. Binding of the protein-A coated beads to the antibody and the streptavidin beads to the peptide, leads to an energy transfer from one bead to the other, ultimately producing a luminescent/fluorescent signal.
For orientation: Bead proximity is the source of the signal in Alpha formats.

Molecules are shown by their SMILES.

Chain of IRAK4 (Q9NWZ3 whole entry, species assumed): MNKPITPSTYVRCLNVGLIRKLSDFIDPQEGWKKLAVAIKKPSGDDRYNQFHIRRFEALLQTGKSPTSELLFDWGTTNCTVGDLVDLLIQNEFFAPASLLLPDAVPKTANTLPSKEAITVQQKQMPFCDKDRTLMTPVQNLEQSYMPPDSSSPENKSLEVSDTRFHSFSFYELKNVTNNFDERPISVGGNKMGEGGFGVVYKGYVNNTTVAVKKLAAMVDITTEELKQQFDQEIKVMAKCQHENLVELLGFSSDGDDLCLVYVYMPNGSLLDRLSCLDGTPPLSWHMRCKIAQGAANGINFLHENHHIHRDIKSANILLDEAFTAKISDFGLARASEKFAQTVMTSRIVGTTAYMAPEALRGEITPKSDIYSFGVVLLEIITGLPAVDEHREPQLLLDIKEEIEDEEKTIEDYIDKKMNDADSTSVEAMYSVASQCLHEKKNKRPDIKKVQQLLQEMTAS

Take `Nc1cc(C(=O)O)cc(-c2ccc3cnn(-c4cccc(C(F)(F)F)n4)c3c2)c1` [Example 85, 3-amino-5-(1-(6-(trifluoromethyl)pyridin-2-yl)-1H-indazol-6-yl)benzoic Acid]: the IC50 – broadly, the concentration at which inhibition is half-maximal – is under 100 nM.

The compound `N#CCNC(=O)c1cc(-c2ccc3cnn(-c4cccc(C(F)(F)F)n4)c3c2)cc(N)n1` [Example 87, 6-amino-N-(cyanomethyl)-4-(1-(6-(trifluoromethyl)pyridin-2-yl)-1H-indazol-6-yl)picolinamide] displayed an IC50 of 100 to 1000 nM.

As for `NCCNC(=O)c1cc(N)cc(-c2ccc3cnn(-c4cccc(C(F)(F)F)n4)c3c2)c1` [Example 88, 3-amino-N-(2-aminoethyl)-5-(1-(6-(trifluoromethyl)pyridin-2-yl)-1H-indazol-6-yl)benzamide], the IC50 was under 100 nM.

The compound `CC(N)c1cccc(-c2ccc3cnn(-c4cccc(C(F)(F)F)n4)c3c2)c1` (centres unmarked) [Example 89, 1-(3-(1-(6-(trifluoromethyl)pyridin-2-yl)-1H-indazol-6-yl)phenyl)ethanamine] had an IC50 of under 100 nM.

In turn, `CC(N)c1cncc(-c2ccc3cnn(-c4cccc(C(F)(F)F)n4)c3c2)c1` (centres unmarked) [Example 90, 1-(5-(1-(6-(trifluoromethyl)pyridin-2-yl)-1H-indazol-6-yl)pyridin-3-yl)ethanamine] displayed an IC50 of under 100 nM.

Compound `CC(N)c1cc(-c2ccc3cnn(-c4cccc(C(F)(F)F)n4)c3c2)ccn1` (centres unmarked) [Example 91, 1-(4-(1-(6-(trifluoromethyl)pyridin-2-yl)-1H-indazol-6-yl)pyridin-2-yl)ethanamine] gave an IC50 of 100 to 1000 nM.

For the compound `N#Cc1cncc(-c2ccc3cnn(-c4cccc(C(F)(F)F)n4)c3c2)n1` [Example 92, 6-(1-(6-(trifluoromethyl)pyridin-2-yl)-1H-indazol-6-yl)pyrazine-2-carbonitrile], the IC50 fell in the range of 1000 to 10000 nM.

Consider `NCc1cncc(-c2ccc3cnn(-c4cccc(C(F)(F)F)n4)c3c2)n1` [Example 93, (6-(1-(6-(trifluoromethyl)pyridin-2-yl)-1H-indazol-6-yl)pyrazin-2-yl)methanamine], for which the IC50 is 1000 to 10000 nM.

The compound `N#Cc1nccc(-c2ccc3cnn(-c4cccc(C(F)(F)F)n4)c3c2)n1` [Example 94, 4-(1-(6-(trifluoromethyl)pyridin-2-yl)-1H-indazol-6-yl)pyrimidine-2-carbonitrile] gave an IC50 of 1000 to 10000 nM.

`NCc1nccc(-c2ccc3cnn(-c4cccc(C(F)(F)F)n4)c3c2)n1` [Example 95, (4-(1-(6-(trifluoromethyl)pyridin-2-yl)-1H-indazol-6-yl)pyrimidin-2-yl)methanamine] yielded an IC50 of 1000 to 10000 nM.

As to `Nc1cncc(-c2ccc3cnn(-c4cccc(C(F)(F)F)n4)c3c2)n1` [Example 96, 6-(1-(6-(trifluoromethyl)pyridin-2-yl)-1H-indazol-6-yl)pyrazin-2-amine], the IC50 fell in the range of 100 to 1000 nM.

For the compound `FC(F)(F)c1cccc(-n2ncc3ccc(-c4cccc(C5CCCN5)n4)cc32)n1` (centres unmarked) [Example 97, 6-(6-(pyrrolidin-2-yl)pyridin-2-yl)-1-(6-(trifluoromethyl)pyridin-2-yl)-1H-indazole], the IC50 was 100 to 1000 nM.

`CN1CCCC1c1cccc(-c2ccc3cnn(-c4cccc(C(F)(F)F)n4)c3c2)n1` (centres unmarked) [Example 98, 6-(6-(1-methylpyrrolidin-2-yl)pyridin-2-yl)-1-(6-(trifluoromethyl)pyridin-2-yl)-1H-indazole]: the IC50 was in the range of 1000 to 10000 nM.

Consider `Cc1cccc(-c2ncc3ccc(-c4cccc(C(C)N)n4)cn23)n1` (centres unmarked) [Example 99, 1-(6-(3-(6-methylpyridin-2-yl)imidazo[1,5-a]pyridin-6-yl)pyridin-2-yl)ethanamine], for which the IC50 is under 100 nM.

As for `Cc1cccc(-n2ncc3c(N)cc(-c4cccc(C(C)N)n4)cc32)n1` (centres unmarked) [Example 100, 6-(6-(1-aminoethyl)pyridin-2-yl)-1-(6-methylpyridin-2-yl)-1H-indazol-4-amine], the half-maximal inhibitory concentration (IC50) was under 100 nM.

With `CNc1cc(-c2cccc(C(C)N)n2)cc2c1cnn2-c1cccc(C)n1` (centres unmarked) [Example 101, 6-(6-(1-aminoethyl)pyridin-2-yl)-N-methyl-1-(6-methylpyridin-2-yl)-1H-indazol-4-amine], the 50% inhibitory concentration (IC50) was under 100 nM.

`Cc1cccc(-n2ncc3c(N(C)C)cc(-c4cccc(C(C)N)n4)cc32)n1` (centres unmarked) [Example 102, 6-(6-(1-aminoethyl)pyridin-2-yl)-N,N-dimethyl-1-(6-methylpyridin-2-yl)-1H-indazol-4-amine] gave an IC50 of under 100 nM.

On to `CC(=O)Nc1cc(-c2cccc(C(C)N)n2)cc2c1cnn2-c1cccc(C)n1` (centres unmarked) [Example 103, N-(6-(6-(1-aminoethyl)pyridin-2-yl)-1-(6-methylpyridin-2-yl)-1H-indazol-4-yl)acetamide], for which the IC50 was 100 to 1000 nM.

`Cc1cccc(-n2ncc3c(CN)cc(-c4cccc(C(C)N)n4)cc32)n1` (centres unmarked) [Example 104, 1-(6-(4-(aminomethyl)-1-(6-methylpyridin-2-yl)-1H-indazol-6-yl)pyridin-2-yl)ethanamine] registered an IC50 of 1000 to 10000 nM.

For `CC(=O)NCc1cc(-c2cccc(C(C)N)n2)cc2c1cnn2-c1cccc(C)n1` (centres unmarked) [Example 105, N-((6-(6-(1-aminoethyl)pyridin-2-yl)-1-(6-methylpyridin-2-yl)-1H-indazol-4-yl)methyl)acetamide], the IC50 is 100 to 1000 nM.

`Cc1cccc(-n2ncc3c(Cl)cc(-c4cccc(C(C)N)n4)cc32)n1` (centres unmarked) [Example 106, 1-(6-(4-chloro-1-(6-methylpyridin-2-yl)-1H-indazol-6-yl)pyridin-2-yl)ethanamine] showed a half-inhibitory concentration (IC50) of under 100 nM.

Consider `Cc1cccc(-n2ncc3c(C4CC4)cc(-c4cccc(C(C)N)n4)cc32)n1` (centres unmarked) [Example 107, 1-(6-(4-cyclopropyl-1-(6-methylpyridin-2-yl)-1H-indazol-6-yl)pyridin-2-yl)ethanamine], for which the IC50 is 100 to 1000 nM.

Regarding `C=C(C)c1cc(-c2cccc(C(C)N)n2)cc2c1cnn2-c1cccc(C)n1` (centres unmarked) [Example 108, 1-(6-(1-(6-methylpyridin-2-yl)-4-(prop-1-en-2-yl)-1H-indazol-6-yl)pyridin-2-yl)ethanamine], the IC50 is under 100 nM.

Compound `CCc1cc(-c2cccc(C(C)N)n2)cc2c1cnn2-c1cccc(C)n1` (centres unmarked) [Example 109, 1-(6-(4-ethyl-1-(6-methylpyridin-2-yl)-1H-indazol-6-yl)pyridin-2-yl)ethanamine] registered an IC50 of 100 to 1000 nM.

As for `Cc1cccc(-n2ncc3c(C(C)C)cc(-c4cccc(C(C)N)n4)cc32)n1` (centres unmarked) [Example 110, 1-(6-(4-isopropyl-1-(6-methylpyridin-2-yl)-1H-indazol-6-yl)pyridin-2-yl)ethanamine], the IC50 fell in the range of 100 to 1000 nM.

On to `Cc1cccc(-n2ncc3c(C(F)(F)F)cc(-c4cccc(C(C)N)n4)cc32)n1` (centres unmarked) [Example 111, 1-(6-(1-(6-methylpyridin-2-yl)-4-(trifluoromethyl)-1H-indazol-6-yl)pyridin-2-yl)ethanamine], for which the 50% inhibitory concentration (IC50) lay within 100 to 1000 nM.

Compound `COC(=O)c1cc(-c2cccc(C(C)N)n2)cc2c1cnn2-c1cccc(C)n1` (centres unmarked) [Example 112, methyl 6-(6-(1-aminoethyl)pyridin-2-yl)-1-(6-methylpyridin-2-yl)-1H-indazole-4-carboxylate] yielded an IC50 of under 100 nM.

In turn, `Cc1cccc(-n2ncc3c(C(=O)O)cc(-c4cccc(C(C)N)n4)cc32)n1` (centres unmarked) [Example 113, 6-(6-(1-aminoethyl)pyridin-2-yl)-1-(6-methylpyridin-2-yl)-1H-indazole-4-carboxylic acid] had a concentration for half-maximal inhibition (IC50) of 100 to 1000 nM.

The compound `Cc1cccc(-n2ncc3c(CO)cc(-c4cccc(C(C)N)n4)cc32)n1` (centres unmarked) [Example 114, (6-(6-(1-aminoethyl)pyridin-2-yl)-1-(6-methylpyridin-2-yl)-1H-indazol-4-yl)methanol] had an IC50 of under 100 nM.

On to `CNC(=O)c1cc(-c2cccc(C(C)N)n2)cc2c1cnn2-c1cccc(C)n1` (centres unmarked) [Example 115, 6-(6-(1-aminoethyl)pyridin-2-yl)-N-methyl-1-(6-methylpyridin-2-yl)-1H-indazole-4-carboxamide], for which the IC50 is under 100 nM.

Compound `CNC(C)c1cccc(-c2ccc3cnn(-c4cccc(C)n4)c3c2)n1` (centres unmarked) [Example 116, N-methyl-1-(6-(1-(6-methylpyridin-2-yl)-1H-indazol-6-yl)pyridin-2-yl)ethanamine] came in with an IC50 of 100 to 1000 nM.

`CC(N)c1cccc(-c2ccc3cnn(-c4cccc(C5CC5)n4)c3c2)n1` (centres unmarked) [Example 119, 1-(6-(1-(6-cyclopropylpyridin-2-yl)-1H-indazol-6-yl)pyridin-2-yl)ethanamine] displayed a 50% inhibitory concentration (IC50) of under 100 nM.

As for `CCc1cccc(-n2ncc3ccc(-c4cccc(C(C)N)n4)cc32)n1` (centres unmarked) [Example 120, 1-(6-(1-(6-ethylpyridin-2-yl)-1H-indazol-6-yl)pyridin-2-yl)ethanamine], the IC50 was under 100 nM.

In the case of `CC(C)c1cccc(-n2ncc3ccc(-c4cccc(C(C)N)n4)cc32)n1` (centres unmarked) [Example 121, 1-(6-(1-(6-isopropylpyridin-2-yl)-1H-indazol-6-yl)pyridin-2-yl)ethanamine], the IC50 was under 100 nM.

With `CC(N)c1cccc(-c2ccc3cnn(-c4ccccn4)c3c2)n1` (centres unmarked) [Example 122, 1-(6-(1-(pyridin-2-yl)-1H-indazol-6-yl)pyridin-2-yl)ethanamine], the IC50 lay within 100 to 1000 nM.

Compound `CC(N)c1cccc(-c2ccc3cnn(-c4cccc(CO)n4)c3c2)n1` (centres unmarked) [Example 123, (6-(6-(6-(1-aminoethyl)pyridin-2-yl)-1H-indazol-1-yl)pyridin-2-yl)methanol] yielded an IC50 of under 100 nM.

`Cc1cc(-c2ccc3cnn(-c4cccc(C)n4)c3c2)nc(C(C)N)c1` (centres unmarked) [Example 124, 1-(4-methyl-6-(1-(6-methylpyridin-2-yl)-1H-indazol-6-yl)pyridin-2-yl)ethanamine] had a concentration for half-maximal inhibition (IC50) of under 100 nM.

For `Cc1cccc(-n2ncc3ccc(-c4cc(C(F)(F)F)cc(C(C)N)n4)cc32)n1` (centres unmarked) [Example 125, 1-(6-(1-(6-methylpyridin-2-yl)-1H-indazol-6-yl)-4-(trifluoromethyl)pyridin-2-yl)ethanamine], the IC50 lay within 100 to 1000 nM.
